# Laboratory results reported in patent publication US10196345B2, “MAO-B selective inhibitor compounds, pharmaceutical compositions thereof and uses thereof” (The University of British Columbia, priority 2013, dated 2019).
# Several values for one entry are separate records, joined by “and”; a condition that tells them apart may be missing. Equal values may be shown once. Entries after “also recorded” stand apart in the source; their conditions may differ. Read-outs that look alike come from different tables or passages of the source.
# Tests used:
# [1] = stability assay in human liver microsomes; conditions: after 60 minutes at room temperature
# [2] = system: DSS induced colitis in C57BL/6 mice; experiment: 3% DSS induced colitis, claudin-3 localization; type: in vivo; conditions: 3% DSS in drinking water, day 7, C57BL/6 mice
# Text: FIGS. 21A and B show a 3% DSS induced colitis and protects epithelial cell-cell claudin-3 localization. […] (A). […] (B). […] Increased cell infiltrate is evident in the DSS-treated animals by the DAPI (blue) staining.
# [3] = system: Porcine ligament epithelial (PLE) cells; experiment: TEER, LPS-induced barrier loss, PLE cells; type: cell-based; conditions: Transwell, LPS challenge at 72 hours
# Procedure: (§1) In each case, TEER was measured every 48 hours after treatment. Statistically significant differences were identified.
# (§2) Transepithelial Resistance (TER) is a common method to screen for barrier integrity. […] For select compounds barrier integrity and protection is also measured using tracer studies because TER accuracy in examining TJ integrity has recently come into question (Van Itallie et al., 2008). Fluorescein isothiocyanate conjugated 10 kD dextran (Invitrogen™) will be added to the apical Transwell™ compartment, fixed, and examined for dextran permeation (Umeda et al., 2006). We expect control and deprenyl-treated cells with an intact barrier to maintain the tracer at the apical membrane region, whereas the breached monolayers will show tracer permeation between the cells.
# [4] = mouse hepatocyte stability assay; conditions: after 60 minutes at room temperature
# [5] = system: IL-8 protein expression in Caco-2 cells; experiment: IL-8 protein expression in LPS- and TNFα-treated Caco-2 cells; type: cell-based, human; conditions: Caco-2, 1 μg/mL LPS or 50 ng/mL TNFα + 20 μM compound, 4, 12 or 24 h
# Procedure: Caco-2 cells were seeded at 83300 cells/cm^2 on a polystyrene 96-well plate in DMEM medium (#10313-021, Gibco™) containing 10% FBS. On day 5 after seeding, wells were replaced with fresh media containing 2.5% FBS. […] Supernatants of the treated cells were analyzed for pro- and anti-inflammatory cytokine proteins using the Human Proinflammatory 7-Plex Ultra-Sensitive Kit™ (K15008C, MSD™) measured by the Sector Imager 2400A (MSD™). Left panel: Absolute concentrations of IL-8 protein in supernatants of cells treated with control (media only), 1 μg/mL LPS or 50 ng/mL TNFα. […] Values were determined by subtracting supernatant cytokine concentrations of control from supernatant cytokine concentrations of treated cells. Results are expressed as mean±standard deviation (n=3).
# [6] = system: human intestinal microvascular endothelial cells (HIMEC); experiment: IL-8, IL-6 and TNFα protein expression in LPS-treated HIMEC; type: cell-based; conditions: 1000 ng/mL LPS + 10 μM compound, 1 or 3 hrs
# Procedure: Human microvascular endothelial cells were seeded at 37500 cells/cm^2 on a fibronectin-coated polystyrene 96-well plate in MCDB 131 medium (#10372-019, Gibco™) containing 20% FBS. On day 2 after seeding, wells were replaced with fresh media containing 2.5% FBS. […] Supernatants of the treated cells were analyzed for pro- and anti-inflammatory cytokine proteins using the Human Proinflammatory 7-Plex Ultra-Sensitive Kit (K15008C, MSD) measured by the Sector Imager 2400A (MSD). Left panel: Absolute concentrations of IL-8, IL-6 and TNFα protein in supernatants of cells treated with control (media only) or increasing concentrations of LPS. Right panel: Absolute IL-8, IL-6 or TNFα concentrations induced or attenuated by 1000 ng/mL LPS±the novel MAO B inhibitors. Values were determined by subtracting supernatant cytokine concentrations of control from supernatant cytokine concentrations of treated cells. Results are expressed as mean±standard deviation (n=3). Statistical significance was determined using a one-way ANOVA and Tukey post-hoc test in SPSS (IBM) comparing control and LPS (left panel) or LPS and novel MAO B inhibitors (right panel). *p<0.05, **p<0.001
# [7] = in vitro BBB permeability in MDCK-WT cells; conditions: dog, MDCK
# Text: (§3) Wildtype Madin-Darby canine cells (MDCK-WT) were used to predict CNS permeability of compounds PS-RG0103, PS-RG0216, PS-RG0245 and PS-AD0191. […] J Allergy Clin Immunol. 1990; 86(6 pt 2): p. 1025-8.
# (§4) Novel MAO B inhibitors selected based on the above screening program will be screened using an in vitro model of blood brain barrier (BBB). Madin-Darby canine kidney (MDCK-WT) and MDCK cells transfected with the human MDR1 gene (MDCK-MDR1) are well established in vitro models used to predict a compound's ability to permeate the blood brain barrier (BBB). […] Apparent permeability (Papp), Efflux ratio (Papp B-A/Papp A-B), as well as the Net flux ratio (Efflux ratioMDCK-MDR1/Efflux ratioMDCK-WT) can be calculated to identify compound BBB permeability and identify compounds that are substrates of P-gp.
# [8] = system: rat intestinal epithelial (IEC-6) cells; experiment: TEER, LPS-induced barrier loss, IEC-6 cells; type: cell-based; conditions: Transwell, LPS challenge at 72 hours
# Procedure: as §1, §2
# [9] = stability assay in mouse liver microsomes; conditions: after 60 minutes at room temperature
# [10] = system: Madin Darby canine kidney (MDCK-I) cells; experiment: TEER in MDCK-I cells; type: cell-based; conditions: for TEER, LPS+deprenyl vs control: MDCK-I cells, Transwell, LPS range, 40 μM deprenyl; for 144-hour barrier (TEER) vs control: MDCK-I, treated at 72 hours; for effect on TEER (MAO A, B, AB inhibitors): no concentration given
# Procedure: In each case, TEER was measured every 48 hours after treatment.
# Transwell cultures were treated at 72 hours (T) post-cell plating.
# Transepithelial Resistance (TER) is a common method to screen for barrier integrity. […] Fluorescein isothiocyanate conjugated 10 kD dextran (Invitrogen™) will be added to the apical Transwell™ compartment, fixed, and examined for dextran permeation (Umeda et al., 2006).
# Amphiregulin (AR) is an EGFR binding ligand and may play a pivotal role in the previously described signaling axis (see FIGS. 15-17). […] (ii) GI [intestinal epithelial cell (IEC)] and (iii) classical [Madin-Darby canine kidney (MDCK-1)].
# C. rodentium infections = experiment: seven-day C. rodentium infection model; type: in vivo
# recombinant human MAO-A = biological target: T1, recombinant human MAO-A (Homo sapiens, UniProt P21397); experiment: Cell-free Fluorescent Monoamine Oxidase A&B Detection Assay, MAO-A; type: biochemical
# T1 sequence (P21397 1-527): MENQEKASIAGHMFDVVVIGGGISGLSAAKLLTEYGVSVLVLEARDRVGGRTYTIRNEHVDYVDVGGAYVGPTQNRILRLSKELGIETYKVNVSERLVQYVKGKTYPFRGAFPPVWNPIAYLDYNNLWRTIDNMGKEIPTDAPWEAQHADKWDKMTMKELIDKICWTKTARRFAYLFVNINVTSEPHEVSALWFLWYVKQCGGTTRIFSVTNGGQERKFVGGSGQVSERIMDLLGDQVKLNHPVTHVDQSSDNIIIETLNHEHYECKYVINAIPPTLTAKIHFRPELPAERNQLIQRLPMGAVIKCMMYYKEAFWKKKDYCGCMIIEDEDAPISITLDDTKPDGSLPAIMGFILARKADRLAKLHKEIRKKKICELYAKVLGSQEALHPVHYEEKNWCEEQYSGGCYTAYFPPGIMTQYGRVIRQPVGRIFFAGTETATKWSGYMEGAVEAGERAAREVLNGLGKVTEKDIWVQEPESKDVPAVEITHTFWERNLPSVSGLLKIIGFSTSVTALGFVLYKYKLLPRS
# Procedure: (§5) The assay was repeated to confirm data.
# (§6) MAO B specific inhibitory activity and selectivity over MAO A is assayed using a commercial kit [Fluoro MAO A and B detection kit (Cell Technology Inc™)]. This kit uses a non-fluorescent detection reagent to measure H2O2 released from the conversion of an MAO A and MAO B substrate specific to its aldehyde. Furthermore, H2O2 oxidizes the detection reagent in a 1:1 stoichiometry to produce a fluorescent product (resorufin). […] This information is then provided to the medicinal chemists to help direct synthesis of subsequent iterations.
# [11] = system: Wildtype Madin-Darby canine cells (MDCK-WT); experiment: in vitro BBB permeability in MDCK-WT cells; conditions: MDCK-WT; one-way ANOVA, Dunnett's test
# Text: as §3, §4
# [12] = hepatocytes, 1 h
# recombinant human MAO-B = biological target: T2, recombinant human MAO-B (Homo sapiens, UniProt P27338); experiment: Cell-free Fluorescent Monoamine Oxidase A&B Detection Assay, MAO-B; type: biochemical
# T2 sequence (P27338 1-520): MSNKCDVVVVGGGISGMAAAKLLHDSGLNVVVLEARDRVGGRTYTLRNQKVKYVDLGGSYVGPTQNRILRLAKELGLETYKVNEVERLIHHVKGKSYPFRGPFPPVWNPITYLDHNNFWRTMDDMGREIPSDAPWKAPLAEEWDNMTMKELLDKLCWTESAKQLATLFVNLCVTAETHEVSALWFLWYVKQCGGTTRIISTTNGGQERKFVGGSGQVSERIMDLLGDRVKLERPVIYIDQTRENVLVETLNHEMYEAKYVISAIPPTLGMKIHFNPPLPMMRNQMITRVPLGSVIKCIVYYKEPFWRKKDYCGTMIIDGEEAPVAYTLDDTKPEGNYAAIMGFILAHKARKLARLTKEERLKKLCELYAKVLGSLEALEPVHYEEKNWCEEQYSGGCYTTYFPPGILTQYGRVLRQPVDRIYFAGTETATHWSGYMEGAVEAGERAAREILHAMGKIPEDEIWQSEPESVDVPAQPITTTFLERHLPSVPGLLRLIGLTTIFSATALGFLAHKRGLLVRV
# Procedure: as §5, §6
# AR protein secretion = experiment: amphiregulin (AR) protein secretion, MDCK-I cells; type: cell-based, canine; conditions: no concentration given
# [13] = system: rat periodontal disease model; conditions: cited from earlier work
# [14] = obese and non-obese rats; cited from earlier work
# [15] = system: MAO activity in adipocytes; conditions: cited from earlier work
# [16] = seven-day C. rodentium infection, preliminary
structure (smiles),measurement,setting,value
C#CCN(C)[C@H](C)Cc1ccccc1 [Deprenyl],compound remaining in human microsome,[1],15%
same,claudin-3 localization,[2],better localized to epithelial cell-cell contacts
same,"TEER, LPS+deprenyl vs control",[3],rescues LPS reduction of TEER
same,"TEER, LPS+deprenyl vs control",[3]; listed as deprenyl,significantly induced TEER above control
same,"compound remaining, mouse hepatocyte stability",[4],less than 2.5%
same,IL-8 protein expression,[5],attenuation of IL-8 protein expression
same,"IL-8, IL-6 and TNFα protein expression",[6],attenuation
same,Papp,[7],44 ± 2.5 ×10⁻⁶ cm/s
same,"TEER, LPS+deprenyl vs control",[8],rescues LPS reduction of TEER
same,"TEER, LPS+deprenyl vs control",[8]; listed as deprenyl,significantly induced TEER above control
same,compound remaining in mouse microsome,[9],less than 2.5%
same,"TEER, LPS+deprenyl vs control",[10],rescues LPS reduction of TEER
same,"TEER, LPS+deprenyl vs control",[10]; listed as deprenyl,significantly induced TEER above control
same,"TEER, co-treatment with H2O2","[10]; MDCK-I on Transwell membranes, H2O2",increased TEER significantly above the control
same,144-hour barrier (TEER) vs control,[10]; 5 μm inhibitor,increased over control
same,144-hour barrier (TEER) vs control,[10]; 40 μm inhibitor,increased over control
same,"effect on TEER (MAO A, B, AB inhibitors)",[10],increased TEER
same,bacterial growth rates,C. rodentium infections; C. rodentium,did not influence bacterial growth rates
same,TJ protein localization at the cell periphery,C. rodentium infections; [16],intact
same,hyperplastic phenotype,C. rodentium infections; [16],not apparent
same,IC90,recombinant human MAO-A; read-out: IC90 MAO-A (μM),9.38 µM
"C[C@H](Cc1ccc(OCc2ccc(Br)c(Cl)c2)cc1)N(C)CC(=O)O.Cl [PS-RG0216, (R)—N-(1-(4-((4-bromo-3-chlorobenzyl)oxy)phenyl)propan-2-yl)-N-methylglycine hydrochloride]",compound remaining in human microsome,[1],91%
same,IL-8 protein expression,[5],attenuation of IL-8 protein expression
same,Papp,[7],1.2 ± 0.1 ×10⁻⁶ cm/s
same,permeability compared with cetirizine,[11],not different from cetirizine
same,"compound remaining, mouse hepatocyte stability",[12],100%
same,IC90,recombinant human MAO-B,1020 nM
same,IC50,recombinant human MAO-B; read-out: IC50 MAO-B,200 nM and 203 nM
same,compound remaining in mouse microsome,[9],74%
same,IC50 MAO-A (μM),"recombinant human MAO-A; cell-free, recombinant human MAO-A, hydrochloride",no activity on MAO-A; also recorded: Does not
NNCCc1ccccc1 [phenelzine],"effect on AR expression/secretion (MAO A, B, AB inhibitors)",AR protein secretion,reduced AR expression
same,histological indicators of periodontal disease,"[13]; co-applied topically with LPS, rat",histological indicators of periodontal disease were reduced
same,"local epithelial cell proliferation and migration, alveolar bone loss, PMN infiltration and systemic H2O2","[13]; rat periodontal disease model, daily LPS",reduced
same,144-hour barrier (TEER) vs control,[10]; 5 μm inhibitor,increased over control
same,144-hour barrier (TEER) vs control,[10]; 40 μm inhibitor,increased over control
same,"effect on TEER (MAO A, B, AB inhibitors)",[10],increased TEER
same,MAO activity,[14],inhibited MAO activity
same,body weight gain,[14],diminished body weight gain
same,intra-abdominal adipose tissue,[14],reduced intra-abdominal adipose tissue
same,MAO activity in adipocytes,[15],inhibit MAO activity in adipocytes
